One data set has as its system HepG2 cells. Briefly: MTT antiproliferation assay, HepG2. Format: cell-based, human. The following applies: for IC50: Homo sapiens, HepG2, 48 h, MTT; for SI values HepG2: IC50 of non-cancerous Vero cells divided by IC50 of HepG2. How it is done:
(§1) Cancerous cell lines (MCF-7: human breast adenocarcinoma cells; HepG2: human hepatocellular carcinoma cells; Caco-2: human epithelial colorectal adenocarcinoma cells; A549: human epithelial lung adenocarcinoma cells), obtained from the American Type Culture Collection (ATCC) (Rockville, MD, United States of America), were cultured in Dulbecco’s Modified Eagle’s Medium (DMEM) high glucose (4.5 g/L) containing L-glutamine (4 mM) and sodium-pyruvate (Hyclone™) supplemented with 10% (v/v) fetal bovine serum (FBS) (Capricorn Scientific GmbH, South America), and incubated at 37°C with 5% CO2 in a humidified environment. African green monkey (Vero) kidney cells (also obtained from ATCC), a non-cancerous cell line, were grown in DMEM high glucose (4.5 g/L) containing L-glutamine (Lonza, Belgium) and supplemented with 5% FBS (Capricorn Scientific GmbH, South America) and 1% gentamicin (Virbac, RSA) in the same environment as cancer cells. The RAW 264.7 murine macrophage cells (obtained from ATCC) were cultured in DMEM high glucose (4.5 g/L) containing L-glutamine (Lonza, Belgium), supplemented with 10% FBS (Capricorn Scientific GmbH, South America) and 1% penicillin/streptomycin/fungizone (PSF) solution, and kept at 37°C in a 5% CO2 humidified environment.
(§2) The cancerous and non-cancerous cells were seeded at a density of 10^4 cells per well in 96-well microtiter plates, and they were incubated overnight at 37°C with 5% CO2 in a 5% CO2 humidified environment in order to allow the attachment of cells at the bottom of the plates. Then, the cells were exposed to increasing concentrations of compounds (100, 50, 25, 10 and 5 μg/mL) dissolved in dimethyl sulfoxide (DMSO) and further diluted in fresh culture medium. In this assay, the final concentration of DMSO in the culture medium was 0.5% used as negative control while doxorubicin hydrochloride (Pfizer, United States of America) was used as a positive control. The culture plates were incubated for 48 h at 37°C in a 5% CO2 humidified environment, after which the culture medium was discarded, and replaced by 200 µL of fresh culture medium with 30 µL of 3-(4,5-dimethylthiazol-2-yl)-2,5-diphenyl-2H-tetrazolium bromide (MTT) (5 mg/mL) dissolved in phosphate buffered saline ([Mosmann, 1983]). After 4 h of incubation, the medium was gently removed, and the formazan crystals were solubilized in 50 µL of DMSO. The absorbance was measured at 570 nm after shaking for 1 min on a microplate reader (Synergy Multi-Mode Reader, BioTek, Winooski, United States of America).
(§3) The cell viability rate was determined at each concentration of the compound as a percentage of cells treated with DMSO at 0.5% used as negative control. […] The selectivity index (Supporting Material) values were calculated for each compound by dividing the IC50 of non-cancerous cells by the IC50 of cancerous cells in the same units ([Mfotie Njoya et al., 2018]; [Mfotie Njoya et al., 2020]).
In general terms: Tetrazolium assays rely on reduction of a dye to a coloured formazan, in cell work by metabolically active cells.

The test system of a further data set is Vero cells. Briefly: MTT antiproliferation assay, non-cancerous Vero cells. Format: cell-based, African green monkey. The following applies: Chlorocebus sabaeus, Vero; 48 h, MTT. On the procedure: as §1, §2, §3
Data set [1] concerns NO production in LPS-stimulated RAW 264.7 cells. Briefly: Nitric oxide production inhibitory assay (Griess) in LPS-stimulated RAW 264.7 cells. It counts as cell-based, murine. The following applies: Mus musculus, RAW264.7; LPS (2 μg/mL), 24 h. How it is done:
as §1
Nitric oxide (NO) production was evaluated in lipopolysaccharide (LPS)-stimulated RAW 264.7 cells by measuring the influence of tested compounds on the accumulation of nitrite, an indicator of NO in the cell supernatant, which can be detected with Griess reagent (Merck, Darmstadt, Germany). Briefly, the RAW 264.7 cells at their exponential growth phase were seeded at a density of 2×10^4 cells per well in 96 well-microtiter plates, and they were incubated overnight at 37°C in a 5% CO2 humidified environment to allow attachment. […] Then, culture medium containing LPS (2 μg/mL) was added to each well and further incubated for 24 h at 37°C in a 5% CO2 humidified environment. Thereafter, 100 μL of cell supernatant from each well were transferred into a new 96-well microtiter plate and an equal volume of Griess reagent was added according to protocol described by the manufacturer. The microtiter plate was incubated for 10 min in the dark at room temperature, and the absorbance of the mixture was measured at 550 nm on a microplate reader (Synergy Multi-Mode Reader, BioTek, Winooski, United States of America). The quantity of nitrite was determined from a sodium nitrite standard curve, and the percentage of NO production was calculated based on the ability of each tested sample to inhibit nitric oxide production by LPS-stimulated RAW 264.7 cells compared to the control (cells treated with LPS without samples which was considered as 100% NO production). Additionally, the cell viability of treated cells was determined by using the MTT assay as previously described ([Mosmann, 1983]).

The subject of a further data set is Caco-2 cells. Briefly: MTT antiproliferation assay, Caco-2. It counts as cell-based, human. The note with it: for IC50: Homo sapiens, Caco-2, 48 h, MTT. How it is done: as §1, §2, §3
The test system of a further data set is MCF-7 cells. Briefly: MTT antiproliferation assay, MCF-7. The note with it: for IC50: Homo sapiens, MCF7, 48 h, MTT. It counts as cell-based, human. How it is done: as §1, §2, §3
The next data set concerns the target T1, 15-LOX (Glycine max, UniProt P08170).
T1 construct: purchased Merck, Darmstadt, Germany
T1 sequence (P08170 1-839): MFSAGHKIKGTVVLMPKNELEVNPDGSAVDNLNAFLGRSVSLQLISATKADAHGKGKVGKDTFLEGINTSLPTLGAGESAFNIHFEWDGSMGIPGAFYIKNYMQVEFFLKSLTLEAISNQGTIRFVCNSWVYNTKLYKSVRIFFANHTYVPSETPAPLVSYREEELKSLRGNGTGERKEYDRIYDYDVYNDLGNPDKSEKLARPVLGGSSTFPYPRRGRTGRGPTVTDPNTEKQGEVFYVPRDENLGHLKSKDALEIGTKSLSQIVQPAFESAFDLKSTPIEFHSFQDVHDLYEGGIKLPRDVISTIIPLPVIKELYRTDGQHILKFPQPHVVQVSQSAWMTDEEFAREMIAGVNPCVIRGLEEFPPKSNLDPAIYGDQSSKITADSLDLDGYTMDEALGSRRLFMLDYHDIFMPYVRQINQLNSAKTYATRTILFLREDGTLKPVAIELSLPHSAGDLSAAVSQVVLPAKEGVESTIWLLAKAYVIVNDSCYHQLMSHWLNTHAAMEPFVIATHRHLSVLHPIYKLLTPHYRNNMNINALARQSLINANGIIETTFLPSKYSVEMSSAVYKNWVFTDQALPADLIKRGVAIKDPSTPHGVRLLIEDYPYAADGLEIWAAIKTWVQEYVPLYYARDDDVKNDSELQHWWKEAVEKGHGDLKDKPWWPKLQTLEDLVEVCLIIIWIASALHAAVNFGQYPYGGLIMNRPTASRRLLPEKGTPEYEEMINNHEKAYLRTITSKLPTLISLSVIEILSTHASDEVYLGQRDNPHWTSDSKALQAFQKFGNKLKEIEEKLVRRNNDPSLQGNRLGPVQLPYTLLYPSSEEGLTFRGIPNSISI
Briefly: Soybean 15-LOX inhibitory assay (FOX). The note with it: linoleic acid 140 μM, pH 7.4, 25°C. Format: biochemical. On the procedure: This assay is based on the formation of the Fe^3+/xylenol orange (FOX) complex with maximal absorption at 560 nm ([Pinto et al., 2007]). Forty microliters of 15-LOX (final concentration: 200 UI/mL) from Glycine max (Merck, Darmstadt, Germany) was incubated with 20 µL of tested samples (100, 50, 25, 10, and 5 μg/mL) at 25°C for 5 min, with DMSO at 10% (v/v) being used as negative control. Thereafter, 40 µL of linoleic acid (final concentration, 140 μM) prepared in Tris-HCl buffer (50 mM, pH 7.4) was added, and the plates were further incubated at 25°C for 20 min in the dark. The assay was terminated by adding 100 μL of FOX reagent [sulfuric acid (30 mM), xylenol orange (100 μM), ferrous II) sulfate (100 μM), dissolved in methanol/water (9:1)], followed by the incubation of the plates at 25°C for 30 min in the dark. Finally, the absorbance was measured at 560 nm on a microplate reader (Epoch, BioTek, Winooski, United States of America). The blanks were made in the same way as tested samples except that the substrate was added after the FOX reagent. The 15-LOX inhibitory activity was calculated by using the following formula: 15−LOX inhibitory activity %=100−Abs sample−Abs blank/Abs negative control−Abs blank×100 (1)

Another data set relates to A549 cells. Briefly: MTT antiproliferation assay, A549. Format: cell-based, human. The following applies: for IC50: Homo sapiens, A549, 48 h, MTT. How it is done: as §1, §2, §3
The mark [2] stands for this setting: read-out: IC50 values 15-LOX (converted).

Where “and” joins values, the source holds several entries; their conditions need not be identical. Equal entries are not always repeated. Structures can show the parent of a compound that is named as a salt. Where two headings read alike, the source gives them in different places.

For `C[C@H]1[C@H](C)CC[C@]2(C)CC[C@]3(C)C(=CC[C@@H]4[C@@]5(C)CC[C@H](O)C(C)(C)[C@@H]5CC[C@]43C)[C@H]12` [Compound 5, α-amyrin (3β-hydroxy-urs-12-en-3-ol)], the concentration for half-maximal inhibition (IC50) is 84.5 µg/mL and 198 µM with HepG2 cells; > 100 µg/mL and > 234 µM with Vero cells; > 100 µg/mL and > 234 µM in data set [1]; > 100 µg/mL and > 234 µM with Caco-2 cells; 82.8 µg/mL and 194 µM in the data set on MCF-7 cells; over 234 µM on 15-LOX (setting [2]). The IC50 with A549 cells is 217 µM and 92.7 µg/mL.

In the case of `COc1cccc2c1C(=O)c1c(O)c3c(c(O)c1C2=O)C[C@@](O)(C(=O)CO)C[C@@H]3O[C@H]1C[C@H](N)[C@H](O)[C@H](C)O1` [Doxorubicin, doxorubicin hydrochloride, reference compound], the IC50 in the data set on HepG2 cells was found to be 560 ± 50 nM; with Vero cells, 4.85 ± 0.51 µM; in the data set on Caco-2 cells, 4.97 ± 0.74 µM; with MCF-7 cells, 1090 ± 60 nM; with A549 cells it was 710 ± 50 nM. Further, the “SI values HepG2” value with HepG2 cells turned out to be 8.66. Further, the “SI values Caco-2” value in the data set with Caco-2 cells (IC50 of non-cancerous Vero cells divided by IC50 of Caco-2) amounted to 0.98. The “SI values MCF7” value in the data set on MCF-7 cells (IC50 of non-cancerous Vero cells divided by IC50 of MCF-7) was 4.45. Moreover, in the data set with A549 cells (IC50 of non-cancerous Vero cells divided by IC50 of A549), the “SI values A549” value is 6.83.

For the compound `O=c1c(O)c(-c2ccc(O)c(O)c2)oc2cc(O)cc(O)c12` [Quercetin, quercetin, reference compound], the IC50 in data set [1] is 12.8 µg/mL and 42.5 µM.

`CC1(C)CC[C@]2(CO)CC[C@]3(C)C(=CC[C@@H]4[C@@]5(C)CC[C@H](O)C(C)(C)[C@@H]5CC[C@]43C)[C@@H]2C1` [Compound 7, erythrodiol]: the IC50 in the data set on HepG2 cells was 73.9 µg/mL and 167 µM; in the data set with Vero cells it was 84 µg/mL and 190 µM; in data set [1] it was 95.6 µg/mL and 216 µM; in the data set with Caco-2 cells, > 100 µg/mL and > 226 µM; with MCF-7 cells, > 100 µg/mL and > 226 µM; on 15-LOX (setting [2]) it was 147 µM. In the data set with A549 cells, the IC50 was > 226 µM and > 100 µg/mL. Further, the “SI values HepG2” value in the data set on HepG2 cells is 1.13.

Consider `C[C@H]1[C@H](C)CC[C@]2(C(=O)O)CC[C@]3(C(=O)O)C(=CC[C@@H]4[C@@]5(C)CC[C@H](O)C(C)(C)[C@@H]5CC[C@]43C)[C@H]12` [Compound 8, quinovic acid], for which the IC50 was 100 µg/mL and 205 µM with HepG2 cells; > 100 µg/mL and > 205 µM in the data set with Vero cells; 86 µg/mL and 177 µM in data set [1]; 81.6 µg/mL and 168 µM in the data set on Caco-2 cells; 98 µg/mL and 201 µM in the data set with MCF-7 cells; 71.9 µM on 15-LOX (IC50 values 15-LOX). The IC50 in the data set on A549 cells was 204 µM and 99.5 µg/mL.

On to `CC1(C)CC[C@]2(C)CC=C3[C@]4(C)CC[C@H]5C(C)(C)[C@@H](O)CC[C@]5(C)[C@H]4CC[C@@]3(C)[C@@H]2C1` [Compound 4, taraxerol], for which the IC50 is 54.2 µg/mL and 127 µM with HepG2 cells; > 100 µg/mL and > 234 µM in the data set with Vero cells; > 100 µg/mL and > 234 µM in data set [1]; > 100 µg/mL and > 234 µM in the data set with Caco-2 cells; 81.3 µg/mL and 191 µM with MCF-7 cells; over 234 µM on 15-LOX (setting [2]). Besides, the IC50 with A549 cells is 177 µM and 75.6 µg/mL.

For `C[C@@H]1CC[C@]2(C(=O)O)CC[C@]3(C(=O)O)C(=CCC4[C@@]5(C)CC[C@H](O)C(CO)(CO)C5CC[C@]43C)C2[C@H]1C` (stereo partly shown) [Compound 3, chletric acid], the IC50 in the data set on HepG2 cells was 80 µg/mL and 150 µM; in the data set with Vero cells, > 100 µg/mL and > 187 µM; in data set [1], > 100 µg/mL and > 187 µM; in the data set on Caco-2 cells, > 100 µg/mL and > 187 µM; in the data set with MCF-7 cells, > 100 µg/mL and > 187 µM; on 15-LOX (setting [2]), 42.4 µM and 41.2 µM. For the same compound, the IC50 in the data set on A549 cells is > 187 µM and > 100 µg/mL.

By IC50 is commonly meant the concentration that inhibits the measured activity by half.

The values above are taken from article PMC10320002, “In vitro antiproliferative, anti-inflammatory effects and molecular docking studies of natural compounds isolated from Sarcocephalus pobeguinii (Hua ex Pobég)” (Frontiers in Pharmacology, 2023).
